Values of other authors, collected in patent US20230348531A1, “ISOLATION AND PURIFICATION OF BACTERIOCIN PRODUCED BY LACTOBACILLUS SAKEI AND ANTIBACTERIAL USE THEREOF AND LACTIC ACID BACTERIA USED” (Zhejiang Gongshang University, priority 2022, published 2023).

Tested on: gram-negative bacteria such as Escherichia coli
Details: background statement

## Nisin
  inhibitory effect on gram-negative bacteria: no inhibitory effect
